Columns and labels:
Musca domestica [1] = test: mortality of houseflies (MD), contact test; type: in vivo, Musca domestica (houseflies - adults); conditions: Musca domestica, 24 h, cotton wool/sugar, 1 day, read-out: grading of mortality, MD
Description: (§1) The activity of the Product was determined using a variety of insect pests. The Product was used in the form of liquid preparations containing 500 or 100 parts per million (ppm) by weight of the Product. The preparations were made by dissolving the Product in acetone and diluting the solutions with water containing 0.01% by weight of a wetting agent sold under the trade name "LISSAPOL" NX until the liquid preparations contained the required concentration of the Product. "Lissapol" is a Registered Trade Mark.
(§2) The test procedure adopted with regard to each pest was basically the same and comprised supporting a number of the pests on a medium which was usually a host plant or a foodstuff on which the pests feed, and treating either or both the pests and the medium with the preparations. The mortality of the pests was then assessed at periods usually varying from one to three days after the treatment.
(§3) The results of the tests are given in Table IV for each of the Products, at the rate in parts per million given in the second column as a grading of mortality designated as A, B or C wherein A indicates 80-100% mortality or knockdown, B indicates 50-79% mortality or knockdown and C indicates less than 50% mortality or knockdown.
(§4) In Table IV the pest organism used is designated by a letter code and the pests species, the support medium or food, and the type and duration of test is given in Table III.

Nilaparvata lugens = test: mortality of green leaf hopper (NL), contact test; type: in vivo, Nilaparvata lugens (brown planthopper); conditions: Nilaparvata lugens, in Brassica oleracea, 144 h, cabbage leaf, 6 days, read-out: grading of mortality, NL
Description: as §1, §2, §3, §4

Diabrotica balteata = test: mortality of rootworm larvae (DB), residual test; type: in vivo, Diabrotica balteata (rootworm larvae); conditions: Diabrotica balteata, in Zea mays, 72 h, filter paper/maize seed, 3 days, read-out: grading of mortality, DB
Description: as §1, §2, §3, §4

Heliothis viriscens = test: whole plant or invertebrate; type: in vivo, Heliothis viriscens (tobacco budworm); conditions: in Gossypium hirsutum, 72 h, read-out: grading of mortality, HV
Description: as §1, §2, §3, §4

Tetranychus urticae = test: mortality of red spider mites (TU), contact test; type: in vivo, Tetranychus urticae (red spider mites - adult); conditions: Tetranychus urticae, 72 h, French bean leaf, 3 days, read-out: grading of mortality, TU
Description: as §1, §2, §3, §4
(red spider mites - adult)

Myzus persicae = test: mortality of aphids (MP), contact test; type: in vivo, Myzus persicae (aphids); conditions: Myzus persicae, 48 h, leaf, 2 days, read-out: grading of mortality, MP
Description: as §1, §2, §3, §4

Musca domestica [2] = test: knockdown of houseflies (MD/KD); type: in vivo, Musca domestica (houseflies - adults); conditions: Musca domestica, cotton wool/sugar, 4 hours, read-out: grading of knockdown, MD/KD
Description: as §1, §2
In case of the species Musca domestica (housefly), additional tests to determine the knockdown effect of the compounds were performed.
as §3, §4

Chilo partellurs = test: mortality of stem borers (CP), residual test; type: in vivo, Chilo partellurs (Stem borers); conditions: Chilo, 72 h, oil seed rape leaf, 3 days, read-out: grading of mortality, CP
Description: as §1, §2, §3, §4

Blattella germanica = test: mortality of cockroach nymphs (BG), residual test; type: in vivo, Blattella germanica (cockroach nymphs); conditions: Blattella germanica, 72 h, plastic pot, 3 days, read-out: grading of mortality, BG
Description: as §1, §2, §3, §4

CC(C)(C=Cc1ccc(F)cc1)COCc1cccc(Oc2ccccc2)c1 [Compound 11, 3,3-Dimethyl-1-(4-fluorophenyl)-4-(3-phenoxybenzyloxy)but-1-ene]
mortality at 500 ppm (Musca domestica [1]): 50 to 79% | mortality at 500 ppm (Nilaparvata lugens): 80 to 100% | mortality at 500 ppm (Diabrotica balteata): 50 to 79% | mortality at 500 ppm (Heliothis viriscens): 80 to 100% | mortality at 500 ppm (Tetranychus urticae): < 50% | mortality at 500 ppm (Myzus persicae): < 50% | pest or weed control at 500 ppm (Musca domestica [2]): 80 to 100% | mortality at 500 ppm (Chilo partellurs): 80 to 100% | mortality at 500 ppm (Blattella germanica): < 50%

Fc1ccc(/C=C\C2(COCc3cccc(Oc4ccccc4)c3)CC2)cc1 [Compound 20, 1-[2-(4-fluorophenyl)ethen-1-yl]-1-(3-phenoxybenzyloxymethyl)cyclopropane]
mortality at 500 ppm (Musca domestica [1]): < 50% | mortality at 500 ppm (Nilaparvata lugens): < 50% | mortality at 500 ppm (Diabrotica balteata): < 50% | mortality at 500 ppm (Heliothis viriscens): < 50% | mortality at 500 ppm (Tetranychus urticae): < 50% | mortality at 500 ppm (Myzus persicae): 50 to 79% | pest or weed control at 500 ppm (Musca domestica [2]): < 50% | mortality at 500 ppm (Chilo partellurs): 80 to 100% | mortality at 500 ppm (Blattella germanica): < 50%

CC(C)(/C=C/c1ccc(C(F)(F)F)cc1)COCc1cccc(Oc2ccccc2)c1 [Compound 12, 3,3-dimethyl-1-(4-trifluoromethylphenyl)-4-(3-phenoxybenzyloxy)but-1-ene]
mortality at 500 ppm (Musca domestica [1]): < 50% | mortality at 500 ppm (Nilaparvata lugens): 80 to 100% | mortality at 500 ppm (Diabrotica balteata): < 50% | mortality at 500 ppm (Heliothis viriscens): < 50% | mortality at 500 ppm (Tetranychus urticae): < 50% | mortality at 500 ppm (Myzus persicae): 50 to 79% | pest or weed control at 500 ppm (Musca domestica [2]): < 50% | mortality at 500 ppm (Chilo partellurs): 80 to 100% | mortality at 500 ppm (Blattella germanica): 50 to 79%

CC(C)(C=Cc1ccccc1F)COCc1cccc(Oc2ccccc2)c1 [Compound 16, 3,3-Dimethyl-1-(2-fluorophenyl)-4-(3-phenoxybenzyloxy)but-1-ene]
mortality at 500 ppm (Musca domestica [1]): < 50% | mortality at 500 ppm (Nilaparvata lugens): < 50% | mortality at 500 ppm (Diabrotica balteata): < 50% | mortality at 500 ppm (Heliothis viriscens): < 50% | mortality at 500 ppm (Tetranychus urticae): < 50% | mortality at 500 ppm (Myzus persicae): < 50% | pest or weed control at 500 ppm (Musca domestica [2]): < 50% | mortality at 500 ppm (Chilo partellurs): < 50% | mortality at 500 ppm (Blattella germanica): < 50%

CCOc1ccc(CCC(C)(C)COCc2cccc(Oc3ccccc3)c2)cc1 [Compound 33, 3,3-Dimethyl-1-(4-ethoxyphenyl)-4-(3-phenoxybenzyloxy)butane]
mortality at 500 ppm (Musca domestica [1]): < 50% | mortality at 500 ppm (Nilaparvata lugens): < 50% | mortality at 500 ppm (Diabrotica balteata): < 50% | mortality at 500 ppm (Heliothis viriscens): < 50% | mortality at 500 ppm (Tetranychus urticae): < 50% | mortality at 500 ppm (Myzus persicae): < 50% | pest or weed control at 500 ppm (Musca domestica [2]): < 50% | mortality at 500 ppm (Chilo partellurs): 80 to 100% | mortality at 500 ppm (Blattella germanica): < 50%

Clc1ccc(/C=C/C2(COCc3cccc(Oc4ccccc4)c3)CC2)cc1 [Compound 22, 1-[2-(4-chlorophenyl)ethen-1-yl]-1-(3-phenoxybenzyloxymethyl)cyclopropane]
mortality at 500 ppm (Musca domestica [1]): < 50% | mortality at 500 ppm (Nilaparvata lugens): 50 to 79% | mortality at 500 ppm (Diabrotica balteata): < 50% | mortality at 500 ppm (Heliothis viriscens): < 50% | mortality at 500 ppm (Tetranychus urticae): < 50% | mortality at 500 ppm (Myzus persicae): < 50% | pest or weed control at 500 ppm (Musca domestica [2]): < 50% | mortality at 500 ppm (Chilo partellurs): 80 to 100% | mortality at 500 ppm (Blattella germanica): < 50%

Cc1ccc(C=CC(C)(C)COCc2cccc(Oc3ccccc3)c2)cc1 [Compound 14, 3,3-Dimethyl-1-(4-methylphenyl)-4-(3-phenoxybenzyloxy)but-1-ene]
mortality at 500 ppm (Musca domestica [1]): < 50% | mortality at 500 ppm (Nilaparvata lugens): 50 to 79% | mortality at 500 ppm (Diabrotica balteata): 50 to 79% | mortality at 500 ppm (Heliothis viriscens): 80 to 100% | mortality at 500 ppm (Tetranychus urticae): < 50% | mortality at 500 ppm (Myzus persicae): < 50% | pest or weed control at 500 ppm (Musca domestica [2]): < 50% | mortality at 500 ppm (Chilo partellurs): 80 to 100% | mortality at 500 ppm (Blattella germanica): < 50%

CC(C)(/C=C\c1ccc(Cl)cc1)COCc1cccc(Oc2ccccc2)c1 [Compound 2, 3,3-Dimethyl-1-(4-chlorophenyl)-4-(3-phenoxybenzyloxy)but-1-ene]
mortality at 500 ppm (Musca domestica [1]): < 50% | mortality at 500 ppm (Nilaparvata lugens): < 50% | mortality at 500 ppm (Diabrotica balteata): < 50% | mortality at 500 ppm (Heliothis viriscens): < 50% | mortality at 500 ppm (Tetranychus urticae): < 50% | mortality at 500 ppm (Myzus persicae): < 50% | pest or weed control at 500 ppm (Musca domestica [2]): < 50% | mortality at 500 ppm (Chilo partellurs): 50 to 79% | mortality at 500 ppm (Blattella germanica): < 50%

CCOc1ccc(/C=C/C(C)(C)COCc2ccc(F)c(Oc3ccccc3)c2)cc1 [Compound 10, 3,3-Dimethyl-1-(4-ethoxyphenyl)-4-(4-fluoro-3-phenoxybenzyloxy)but-1-ene]
mortality at 500 ppm (Musca domestica [1]): 50 to 79% | mortality at 500 ppm (Nilaparvata lugens): < 50% | mortality at 500 ppm (Diabrotica balteata): < 50% | mortality at 500 ppm (Heliothis viriscens): 80 to 100% | mortality at 500 ppm (Tetranychus urticae): < 50% | mortality at 500 ppm (Myzus persicae): 50 to 79% | pest or weed control at 500 ppm (Musca domestica [2]): 50 to 79% | mortality at 500 ppm (Chilo partellurs): 80 to 100% | mortality at 500 ppm (Blattella germanica): < 50%

CC(C)(C=Cc1ccccc1)COCc1ccc(F)c(Oc2ccccc2)c1 [Compound 9, 3,3-Dimethyl-1-phenyl-4-(4-fluoro-3-phenoxybenzyloxy)but-1-ene]
mortality at 500 ppm (Musca domestica [1]): 80 to 100% | mortality at 500 ppm (Nilaparvata lugens): 80 to 100% | mortality at 500 ppm (Diabrotica balteata): 80 to 100% | mortality at 500 ppm (Heliothis viriscens): 80 to 100% | mortality at 500 ppm (Tetranychus urticae): < 50% | mortality at 500 ppm (Myzus persicae): 80 to 100% | pest or weed control at 500 ppm (Musca domestica [2]): 80 to 100% | mortality at 500 ppm (Chilo partellurs): 80 to 100% | mortality at 500 ppm (Blattella germanica): < 50%

Fc1ccc(/C=C/C2(COCc3cccc(Oc4ccccc4)c3)CC2)cc1 [Compound 19, 1-[2-(4-fluorophenyl)ethen-1-yl]-1-(3-phenoxybenzyloxymethyl)cyclopropane]
mortality at 100 ppm (Musca domestica [1]; 100 ppm): < 50% | mortality at 100 ppm (Nilaparvata lugens; 100 ppm): < 50% | mortality at 100 ppm (Diabrotica balteata; 100 ppm): < 50% | mortality at 100 ppm (Heliothis viriscens): 80 to 100% | mortality at 100 ppm (Tetranychus urticae; 100 ppm): < 50% | mortality at 100 ppm (Myzus persicae; 100 ppm): < 50% | pest or weed control at 100 ppm (Musca domestica [2]; 100 ppm): < 50% | mortality at 100 ppm (Chilo partellurs; 100 ppm): < 50% | mortality at 100 ppm (Blattella germanica; 100 ppm): < 50%

CCC(C)(/C=C\c1ccc(Cl)cc1)COCc1cccc(Oc2ccccc2)c1 (stereo not drawn) [Compound 26, 3-Ethyl-3-methyl-1-(4-chlorophenyl)-4-(3-phenoxybenzyloxy)but-1-ene]
mortality at 500 ppm (Musca domestica [1]): < 50% | mortality at 500 ppm (Nilaparvata lugens): < 50% | mortality at 500 ppm (Diabrotica balteata): < 50% | mortality at 500 ppm (Heliothis viriscens): < 50% | mortality at 500 ppm (Tetranychus urticae): < 50% | mortality at 500 ppm (Myzus persicae): < 50% | pest or weed control at 500 ppm (Musca domestica [2]): < 50% | mortality at 500 ppm (Chilo partellurs): < 50% | mortality at 500 ppm (Blattella germanica): < 50%

Cc1ccc(C=CC(C)(C)COCc2ccc(F)c(Oc3ccccc3)c2)cc1 [Compound 8, 3,3-Dimethyl-1-(4-methylphenyl)-4-(4-fluoro-3-phenoxybenzyloxy)but-1-ene]
mortality at 500 ppm (Musca domestica [1]): 80 to 100% | mortality at 500 ppm (Nilaparvata lugens): 80 to 100% | mortality at 500 ppm (Diabrotica balteata): 80 to 100% | mortality at 500 ppm (Heliothis viriscens): 80 to 100% | mortality at 500 ppm (Tetranychus urticae): < 50% | mortality at 500 ppm (Myzus persicae): 80 to 100% | pest or weed control at 500 ppm (Musca domestica [2]): 80 to 100% | mortality at 500 ppm (Chilo partellurs): 80 to 100% | mortality at 500 ppm (Blattella germanica): 50 to 79%

CC(C)(C=Cc1ccc(Cl)cc1)COCc1ccc(F)c(Oc2ccccc2)c1 [Compound 7, 3,3-Dimethyl-1-(4-chlorophenyl)-4-(4-fluoro-3-phenoxybenzyloxy)but-1-ene]
mortality at 500 ppm (Musca domestica [1]): 80 to 100% | mortality at 500 ppm (Nilaparvata lugens): < 50% | mortality at 500 ppm (Diabrotica balteata): 80 to 100% | mortality at 500 ppm (Heliothis viriscens): 80 to 100% | mortality at 500 ppm (Tetranychus urticae): < 50% | mortality at 500 ppm (Myzus persicae): 80 to 100% | pest or weed control at 500 ppm (Musca domestica [2]): 80 to 100% | mortality at 500 ppm (Chilo partellurs): 80 to 100% | mortality at 500 ppm (Blattella germanica): < 50%

Reference: US4705900A, “Insecticidal alkenes” (Imperial Chemical Industries PLC, priority 1985, dated 1987)
